Assay results: ChEMBL document CHEMBL4118066, “QSAR-driven design, synthesis and discovery of potent chalcone derivatives with antitubercular activity” (Eur J Med Chem, 2017)
Converted amounts (≈) assume the structure as drawn.

Each compound was assayed on Mycobacterium tuberculosis variant bovis (assay: microbe, parasite or virus in culture). Conditions: ATCC 35734, 168 h.
Format: functional
Cc1ccccc1C(=O)/C=C/c1ccc([N+](=O)[O-])o1 was tested, and the MIC90 was 0.27 µM (≈ 0.0695 µg/mL). With CCCCc1ccc(C(=O)/C=C/c2ccc([N+](=O)[O-])o2)cc1 the MIC90 was 0.36 µM (≈ 0.108 µg/mL). CN(C)c1ccc(/C=C/C(=O)c2ccc(-c3ccccc3)cc2)cc1 showed an MIC90 of over 10 µM. In the case of CCCCc1ccc(C(=O)/C=C/c2ccc([N+](=O)[O-])s2)cc1, the MIC90 is reported as 1.64 µM (≈ 0.517 µg/mL). CC(C)(C)c1ccc(C(=O)/C=C/c2ccc([N+](=O)[O-])s2)cc1 was tested, and the MIC90 was 0.5 µM (≈ 0.158 µg/mL). COc1ccc(/C=C/C(=O)c2cccc(I)c2)cc1 showed an MIC90 of 9.47 µM (≈ 3.45 µg/mL). With O=C(/C=C/c1cccc([N+](=O)[O-])c1)c1ccc(N2CCCCC2)cc1 the MIC90 was over 10 µM. O=C(/C=C/c1ccc([N+](=O)[O-])o1)c1ccc(-c2ccccc2)cc1 was tested, and the MIC90 was 0.59 µM (≈ 0.188 µg/mL). In the case of O=C(/C=C/c1ccc([N+](=O)[O-])o1)c1cccc(Br)c1, the MIC90 is reported as 0.18 µM (≈ 0.058 µg/mL). CSc1ccc(C(=O)/C=C/c2ccc([N+](=O)[O-])o2)cc1 showed an MIC90 of 0.26 µM (≈ 0.0752 µg/mL). O=C(/C=C/c1ccc(Cl)s1)c1ccc(-n2ccnc2)cc1 gave an MIC90 of 9.52 µM (≈ 3 µg/mL). CSc1ccc(C(=O)/C=C/c2ccc([N+](=O)[O-])s2)cc1 showed an MIC90 of 0.56 µM (≈ 0.171 µg/mL). O=C(/C=C/c1ccc([N+](=O)[O-])cc1)c1ccc(N2CCCCC2)cc1 was tested, and the MIC90 was over 10 µM. With CSc1ccc(C(=O)/C=C/c2ccco2)cc1 the MIC90 was over 10 µM. O=C(/C=C/c1ccc([N+](=O)[O-])s1)c1ccc(C2CCCCC2)cc1 showed an MIC90 of 2.38 µM (≈ 0.813 µg/mL). Work on O=C(/C=C/c1ccc([N+](=O)[O-])s1)c1ccc(N2CCOCC2)cc1 yielded an MIC90 of 9.12 µM (≈ 3.14 µg/mL). With Cc1ccc(C(=O)/C=C/c2ccc([N+](=O)[O-])s2)cc1 the MIC90 was 0.98 µM (≈ 0.268 µg/mL). Compound O=C(/C=C/c1ccco1)c1ccc(N2CCCCC2)cc1 has an MIC90 of over 10 µM. For Cc1cccc(C(=O)/C=C/c2ccc([N+](=O)[O-])o2)c1, the MIC90 was over 10 µM. For COc1ccc(/C=C/C(=O)c2ccc(-c3ccccc3)cc2)cc1, the MIC90 was over 10 µM. O=C(/C=C/c1ccc([N+](=O)[O-])o1)c1ccc(N2CCCC2)cc1 showed an MIC90 of 2.18 µM (≈ 0.681 µg/mL). In the case of CC(C)(C)c1ccc(C(=O)/C=C/c2ccco2)cc1, the MIC90 is reported as over 10 µM. COc1ccc(/C=C/C(=O)c2cccc(Br)c2)cc1 was tested, and the MIC90 was 9.38 µM (≈ 2.98 µg/mL). In the case of O=C(/C=C/c1ccc([N+](=O)[O-])o1)c1ccc(I)cc1, the MIC90 is reported as 2.57 µM (≈ 0.949 µg/mL). In the case of O=C(/C=C/c1ccc([N+](=O)[O-])s1)c1ccc(-n2ccnc2)cc1, the MIC90 is reported as 0.23 µM (≈ 0.0748 µg/mL). CC(C)(C)c1ccc(C(=O)/C=C/c2ccc[nH]2)cc1 showed an MIC90 of over 10 µM.
